Some test systems named below: IGROV1 ovarian; NCI-H23 lung; COLO 205 colon; 786-0 renal; NCI-H522 lung; RXF 393 renal; OVCAR-4 ovarian; ACHN renal; OVCAR-8 ovarian; HT29 colon; NCI/ADR-RES ovarian; MOLT-4 leukemia; HCT-15 colon; UACC-257 melanoma; DU-145 prostate; NCI-H226 lung; TK-10 renal; RPMI-8226 leukemia; SR leukemia.
What all share (assay): NCI-60 cell line screen, 48 h

The structures appear in SMILES notation.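 Compound exposure: 48 hours, 5 concentrations, 96-well plates. TGI: concentration producing complete growth inhibition.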 Some results are limits rather than exact numbers.

As to `CC1OC(OC2C(O[C@H]3CC[C@@H]4C(=CC[C@@H]5[C@@]4(C)C(=O)C[C@]4(C)[C@@H]([C@H](C)CC[C@@H](O)C(C)(C)O)CC[C@@]54C)C3(C)C)OC(CO)C(O)C2O)C(O)C(O)C1O` (stereo partly specified), the TGI with IGROV1 ovarian, with NCI-H23 lung, in the assay with COLO 205 colon, in the assay with 786-0 renal, in the assay with NCI-H522 lung and in the assay with RXF 393 renal was more than 100 µM throughout. For the same compound, the TGI in the assay with OVCAR-4 ovarian, with ACHN renal, with OVCAR-8 ovarian, in the assay on HT29 colon, in the assay on NCI/ADR-RES ovarian and in the assay with MOLT-4 leukemia was more than 100 µM in each case. Also, the TGI with HCT-15 colon, in the assay with UACC-257 melanoma, with DU-145 prostate, in the assay on NCI-H226 lung and in the assay with TK-10 renal was more than 100 µM in each case.

Consider `CC1=CC(=O)[C@@H](O)[C@]2(C)[C@H]3[C@@]4(O)OC[C@]35[C@H]([C@@H](C)[C@H]4O)[C@@H](OC(=O)C(C)(C)CO)C(=O)O[C@@H]5C[C@@H]12`, for which the TGI in the assay on NCI-H23 lung was 0.0869 µM; in the assay on COLO 205 colon it was 7 µM; in the assay with 786-0 renal, 4.83 µM; with NCI-H522 lung, 0.417 µM; with RXF 393 renal, 2.23 µM; with OVCAR-4 ovarian it was 1.9 µM. The TGI with ACHN renal amounted to 1.33 µM; with OVCAR-8 ovarian, 2.52 µM; with RPMI-8226 leukemia it was 0.0968 µM; in the assay on HT29 colon, 10.4 µM; in the assay with NCI/ADR-RES ovarian, 51.3 µM; in the assay with HCT-15 colon it was 3.1 µM. In the assay with NCI-H226 lung, this compound gave a TGI of 0.553 µM.

For the compound `Cc1nnc2n1N=C(c1ccccc1)/C(=C/c1ccc(-c3ccc(Cl)cc3)o1)S2`, the TGI in the assay on IGROV1 ovarian stood at 36.6 µM; with NCI-H23 lung it was 36.4 µM; in the assay with COLO 205 colon, 41.5 µM; in the assay on 786-0 renal it was 27.2 µM; in the assay with NCI-H522 lung, 24.7 µM; in the assay on RXF 393 renal, 26.7 µM. Also, the TGI was 80 µM with OVCAR-4 ovarian; 26.3 µM in the assay with ACHN renal; 26.8 µM in the assay on RPMI-8226 leukemia; 44.7 µM in the assay with HT29 colon; 42.1 µM in the assay with SR leukemia; 23 µM in the assay with MOLT-4 leukemia. Besides, the TGI in the assay on HCT-15 colon amounted to 31.3 µM; in the assay on UACC-257 melanoma, 36.2 µM; with DU-145 prostate it was 38.9 µM; with NCI-H226 lung, 31.1 µM; in the assay with TK-10 renal, 26.4 µM.

As for `COc1ccc(/C=c2/sc3n(c2=O)C(c2ccccc2)C2(O)CCCCC2N=3)cc1` (stereo unspecified), the TGI in the assay with IGROV1 ovarian, in the assay with NCI-H23 lung, in the assay with 786-0 renal, in the assay on NCI-H522 lung, in the assay with OVCAR-4 ovarian and in the assay on ACHN renal was more than 12.5 µM each time. Further, the TGI with OVCAR-8 ovarian, in the assay on RPMI-8226 leukemia, with HT29 colon, with SR leukemia, in the assay on MOLT-4 leukemia and in the assay on UACC-257 melanoma was more than 12.5 µM in each case. For the same compound, the TGI in the assay with NCI-H226 lung and in the assay on TK-10 renal was more than 12.5 µM in each case.

Take `O=C1NC(N/N=C/C(O)C(O)C(O)C(O)CO)=N/C1=C\c1ccco1` (stereo unspecified): the TGI with IGROV1 ovarian, in the assay with NCI-H23 lung, with COLO 205 colon, with 786-0 renal, in the assay with NCI-H522 lung and in the assay with RXF 393 renal was more than 100 µM throughout. The TGI in the assay on OVCAR-4 ovarian, in the assay with ACHN renal, in the assay on OVCAR-8 ovarian, in the assay on RPMI-8226 leukemia, in the assay with HT29 colon and with NCI/ADR-RES ovarian was more than 100 µM throughout. In addition, the TGI with MOLT-4 leukemia, in the assay on HCT-15 colon, in the assay on UACC-257 melanoma, with DU-145 prostate, with NCI-H226 lung and in the assay on TK-10 renal was more than 100 µM in each case.

Turning to `C/C=C/C(C#N)(/C=C/c1ccccc1)OP1(=O)OC(c2ccccc2)C(C)N1C` (stereo unspecified), the TGI came to 32.8 µM with IGROV1 ovarian; 32.1 µM in the assay on COLO 205 colon; 31.7 µM in the assay with 786-0 renal; 42.2 µM with NCI-H522 lung; 38.5 µM in the assay on RXF 393 renal; 68.7 µM with ACHN renal. Moreover, the TGI with OVCAR-8 ovarian is 35.5 µM; in the assay on RPMI-8226 leukemia it was 40 µM; in the assay with HT29 colon, 44.7 µM; in the assay with MOLT-4 leukemia it was 28.8 µM; with UACC-257 melanoma, 35.1 µM; in the assay on DU-145 prostate, 90.1 µM. Moreover, the TGI with TK-10 renal came out at 37.8 µM.

`COc1cc(-c2ccc(Br)[nH]2)[nH]c1C=NCC(C)C`: the TGI stood at 7.09 µM in the assay on IGROV1 ovarian; 4.14 µM with NCI-H23 lung; 2.48 µM with COLO 205 colon; 3.27 µM in the assay with 786-0 renal; 12.8 µM in the assay on OVCAR-4 ovarian; 4.19 µM in the assay on ACHN renal. The TGI in the assay on OVCAR-8 ovarian worked out at 6.28 µM; in the assay with RPMI-8226 leukemia, 2.67 µM; with HT29 colon it was 3.54 µM; with MOLT-4 leukemia it was 4.04 µM; with HCT-15 colon it was 3.15 µM; in the assay with UACC-257 melanoma, 5.34 µM. In addition, the results for the TGI in the assay on DU-145 prostate and in the assay on TK-10 renal were 2.9 µM and 6.56 µM, respectively.

`CN1Cc2ccccc2S(=O)(=O)n2cccc2C1=O`: the TGI in the assay on IGROV1 ovarian, in the assay on COLO 205 colon, in the assay on 786-0 renal, with NCI-H522 lung, in the assay with RXF 393 renal and in the assay on OVCAR-4 ovarian was more than 100 µM throughout. Moreover, the TGI in the assay on ACHN renal, with RPMI-8226 leukemia, with SR leukemia, in the assay on MOLT-4 leukemia, in the assay with HCT-15 colon and in the assay with UACC-257 melanoma was more than 100 µM each time. The TGI in the assay on DU-145 prostate and with TK-10 renal was more than 100 µM in each case.

For the compound `Cc1c(-c2ccc(O)cc2)n(CCCCCCNCCOC(=O)NCCCc2ccc(N(CCCl)CCCl)cc2)c2ccc(O)cc12`, the TGI was 5.9 µM with IGROV1 ovarian; 3.45 µM in the assay with NCI-H23 lung; 7.57 µM with COLO 205 colon; 2.97 µM in the assay with 786-0 renal; 3.44 µM with NCI-H522 lung; 4.44 µM in the assay on OVCAR-4 ovarian. The TGI in the assay on ACHN renal amounted to 14.1 µM; in the assay on OVCAR-8 ovarian, 2.88 µM; in the assay on RPMI-8226 leukemia it was 2.98 µM; in the assay on HT29 colon it was 3.09 µM; with SR leukemia, 3.18 µM; in the assay with MOLT-4 leukemia, 2.92 µM. The TGI is 3.56 µM with HCT-15 colon, 3.57 µM in the assay with UACC-257 melanoma, 3.97 µM with DU-145 prostate and 6.06 µM in the assay with TK-10 renal.

The values above are taken from PubChem BioAssay (NCI).
